Experimental data reported in patent publication US10195284B2, “Compositions and methods for controlled localized delivery of bone forming therapeutic agents” (University of Rochester, priority 2013, dated 2019).

Tested on: β-catenin in MSCs
Assay: β-catenin agonism and cellular uptake of NPs in MSCs
Type: cell-based
Conditions: over 5 days of treatment
Method: To investigate the intracellular accessibility of this NPs, polymers were labeled with fluorescein isothiocyanate (FITC) fluorophore and incubated with MSCs (FIG. 44B). […] To validate β-catenin agonism of NP delivered GSK3β inhibitor XXVII, cells were treated with free GSK3β inhibitor XXVII and NP delivered GSK3β inhibitor XXVII.

CN1CCN(S(=O)(=O)c2ccc(-c3cnc(N)c(C(=O)Nc4cccnc4)n3)cc2)CC1 [GSK3β inhibitor XXVII, 3-amino-6-{4-[(4-methyl-1-piperazinyl)sulfonyl]phenyl}-N-(3-pyridinyl)-2-pyrazinecarboxamide]
β-catenin agonism / activation: potent agonist of β-catenin
